Patent US20170304169A1, “USE OF A COSMETIC COMPOSITION COMPRISING 10-HYDROXYSTEARIC ACID” (DSM IP ASSETS B.V., priority 2014, published 2017)

How the values were obtained:
Assay type in all cases: cell-based
[1] = tested on: Collagen 1; experiment: Collagen 1 synthesis in normal human fibroblasts (immunofluorescence, high content imaging); details: 48 h, primary human fibroblasts; for collagen 1 induction (in words): increasing amounts of compound
Procedure: (§1) Human dermal fibroblasts isolated from a biopsy of a donor (Fb-D) were maintained in Dulbecco's modified Eagle's medium high glucose (DMEM) containing 10% fetal calf serum (FCS) and 1% penicillin/streptomycin (P/S). Cells were cultivated at 37° C. in a humidified 5% CO2-air atmosphere.
Human dermal fibroblasts were pre-cultured in DMEM 10% FCS 1% P/S for 24 h before being starved in DMEM low glucose containing 0.2% FCS and 1% P/S for 2.5 days. Starvation medium was then replaced and solubilized compounds were added and incubated for 48 h. After compound incubation cells were fixed in DPBS containing 4% formaldehyde for 15 min and permeabilized with DPBS 0.1% Triton-X100 for 90 sec. Collagen 1 was detected using mouse anti human collagen 1 antibody and the first antibody was detected with AlexaFluor 488 conjugated goat anti-mouse IgG. We counterstained nuclei with DAPI. Stained cells were analysed with the Thermo Fisher High Content Imaging System. There were acquired 49 pictures per well with a 10× objective and images were subsequently analysed using the “CellHealthProfiling” bioapplication v4. Collagen 1 was measured in a defined region around the nucleus and the fluorescence intensity values were normalized to cell count.
Following a pre-culture period, primary human fibroblasts were incubated for 48 h with increasing amounts of compound. Cells were then fixed and collagen 1 protein level was assessed by immunofluorescence. The experiment was repeated twice. After starvation fibroblasts were incubated for 48 h with increasing amounts of compound. TGF-β1 serves as positive control. Values given are fold collagen 1 induction compared with control cells. […] Collagen 1 induction reached 2.2 fold induction when 10-HSA was used at 5 μM.

[2] = tested on: Type III collagen; experiment: Collagen 3 synthesis in normal human fibroblasts (immunofluorescence, ArrayScan); details: 48 h, human dermal fibroblasts
Procedure: Human dermal fibroblasts obtained from adult skin (donor) were seeded into 96-well plates (4000 cells/well) and cultured in Dulbecco's Modified Eagle Medium (DMEM) with 10% fetal calf serum (FCS) and 1% Penicillin/Streptomycin (Life Technologies, Lucerne, Switzerland) at 37° C. with 5% CO2 for 24 h. After medium was changed with DMEM Low Glucose containing 0.2% FCS and 1% Pen/Strep, the cells were incubated for another 2.5 days. Then, starvation medium was replaced with fresh medium containing the test compounds. After 48 h incubation the cells were fixed in Dulbecco's Phosphate-Buffered Saline (DPBS) containing 4% formaldehyde (Life Technologies, Lucerne, Switzerland) for 15 min and permeabilized with 0.1% Triton-X100 in DPBS for 90 sec.
Collagen 3 was detected using rabbit anti-human Type III collagen (BioTrend, Cologne, Germany), followed by the AlexaFluor 488 conjugated secondary IgG antibody (goat anti-rabbit IgG, Life Technologies, Lucerne, Switzerland). […]
Stained cells were analysed with the ArrayScan VTI HCS Reader (Thermo Fisher Scientific, Waltham, Mass., USA). The total of 49 pictures per well was acquired with a 10× objective and images were subsequently analysed using the “CellHealthProfiling” bioapplication v4. Collagen was measured in a defined region around the nucleus and the fluorescence intensity values were normalized to the cell count. […]

[3] = tested on: Human skin from abdominal plastic surgery; experiment: Skin viability (MTT) in human skin organ culture; details: topical, 0.1, 1 and 10 mg/ml, day 6, MTT
Procedure: (§2) Human skin from abdominal plastic surgery has been used (donor[…]). Informed consent has been obtained. The skin phototype has been assayed with a spectro-colorimeter and classified as “BROWN” (ITA° angle=9.3°) (pigmentation scale: very light<light<intermediate<tanned<brown<dark) (Del Bino et al., Pigment Cell Research, 19. 2006).
(§3) The skin samples have been cut in pieces of approximately 8×3 mm (ø×thickness) and cultured up to day 6. Fourteen skin specimens have been used for each treatment. Two skin samples have been cultured to perform the skin viability test, six to perform the skin pigmentation and the collagen analyses and six for the SBC test.
Skin samples have been cultured in an air-liquid interface in a perforated ring of stainless steel in contact with culture medium (modified Williams' E medium) up to day 6. The culture medium has been renewed every three days (i.e. day 0-3).
Both the test samples and the controls have been applied topically and renewed daily. […]
After 6 days of incubation two skin biopsies have been weighed and, in case, reduced in the dermal portion, in order to have approximately the same weight for all of them. […] Subsequently the blue crystals have been solubilized and the color intensity, that is directly proportional to skin vitality, has been measured with a plate reader at a wavelength of 570 nm. […]

[4] = tested on: MMP-1; experiment: MMP-1 expression by RT-qPCR in UVB-irradiated human skin organ culture; details: UVB (1 J/cm2), human skin explants
Procedure: Human skin from abdominal plastic surgery has been used (donor). Informed consent has been obtained. The skin phototype has been assayed with a spectro-colorimeter and classified as “LIGHT” (ITA° angle=50°) (pigmentation scale: very light<light<intermediate<tanned<brown<dark) (Del Bino et al., Pigment Cell Research, 19. 2006).
The skin samples have been cut in pieces of 8×3 mm (ø×thickness) and cultured up to day 2. Two skin samples for each treatment have been cultured to perform the MMP-1 analysis.
Skin samples have been cultured in an air-liquid interface in a perforated ring of stainless steel in contact with culture medium (modified Williams' E medium) up to day 2. The culture medium has been renewed every three days (i.e. day 0-3).
Both the test samples and the controls have been applied topically, renewed 1 hour prior of UVB irradiation. Right before the irradiation the treatments have been gently yet carefully removed from the skin samples. […]
For RT-qPCR analysis, total RNA have been extracted from full thickness skin using RNAeasy mini kit for fibrous tissues (Qiagen) following manufacturer's instructions. After quantification, 400 ng of total RNA have been retro-transcribed using random hexamers and Superscript III (Invitrogen). […]

[5] = tested on: p53; experiment: p53 detection and quantification in UVB-irradiated human skin organ culture; details: 0.1 mg/ml, UVB (1 J/cm2), human skin explants
Procedure: Cell culture was performed as in example 12 above.
Skin sections have been stained with the antibody for p53 (Abcam, #ab7757). The p53 positive cells have been counted and the obtained value have been divided upon the area covered by epidermis. Two slides of each skin sample have been processed by image acquisition and related analysis (i.e. 12 images for each test treatment).
(§4) All quantitative data have been summarized in terms of the mean score for each treatment. The measures of variation as standard deviation and standard error of mean (SEM) have been applied to the original scores. Differences between groups were evaluated by One-way anova with permutation test followed by pairwise post-hoc comparisons—Dunnett's permutation test and pairwise post hoc comparisons—Tukey's HSD permutation tests.

[6] = tested on: Collagen 3; experiment: Collagen 3 immunostaining in human skin organ culture; details: topical, human skin explants
Procedure: as §2, §3
Skin samples have been cultured in an air-liquid interface in a perforated ring of stainless steel in contact with culture medium (modified Williams' E medium) up to day 6. […]
Skin sections have been immune-stained with the selected antibody. The amount of the antigen present in each slide has been evaluated by estimating the intensity and the distribution of the red within a selected area of the dermis using Image J (NIH-USA). […]
as §4, with “The measures of variation as standard deviation and standard error of mean (SEM) have been applied to the original scores.” left out

[7] = tested on: Human dermal fibroblasts; experiment: Cytotoxicity measurement, MTT assay in human dermal fibroblasts; details: normal human fibroblasts, 48 h
Procedure: as §1
Cytotoxicity was measured using the MTT assay according to the manufacturer's instructions. In brief: Fibroblasts (4000 cells/well, in 96-well cell culture plates from Nunc) were pre-cultured in DMEM 10% FCS 1% Penicillin/Streptomycin (P/S) for 24 h before being starved in DMEM low glucose containing 0.2% FCS and 1% P/S for 2.5 days. Starvation medium was then replaced and solubilized compounds were added and incubated for 48 h. Subsequently 10 μl MTT labelling reagent were added to each well (final concentration 0.5 mg/ml) and the microtiter plate was incubated for 4 h (37° C., 5% CO2). After addition of 100 μl solubilization solution into each well, the plate was allowed to stand overnight in the incubator (37° C., 5% CO2). The absorbance (OD) was measured in an absorbance plate reader at 550 nm.
Normal human fibroblasts treated with compounds for 48 h were assessed for viability using the MTT assay. Control values without compound were set to 100% viability.

Row | SMILES | fold collagen 1 induction compared with control cells ([1]; 5 μM) [fold] | collagen 1 induction (in words) [1] | increase in type III collagen compared with medium treated cells ([2]; 5 μM) [%] | type III collagen synthesis (in words) ([2]; p<0.01 relative to medium control) | skin viability [3] | MMP-1 expression in comparison to vehicle (DMSO), in words [4] | p53 UV-induced stimulation vs DMSO UV [5] [%] | increase in expression of collagen 3 ([6]; 0.1 mg/ml) | increase in expression of collagen 3 ([6]; 1 mg/ml) | cytotoxic effect (reduction of cell survival to less than 80% compared to control cells) [7]
1 | CCCCCCCCC(O)CCCCCCCCC(=O)O (centres unmarked) [10-HSA, 10-hydroxystearic acid] | 2.2 | dose dependent induction of collagen 1 | 244 | significantly induced type III collagen synthesis in a dose-dependent manner | did not affect skin viability | significantly and considerably reduced the expression of MMP-1 | −46 | +49% | +57% | did not show any cytotoxic effect
2 | CCCCCCCCCCCCCCCCCC(=O)O [stearic acid] | – | did not induced collagen 1 expression | – | – | – | – | – | – | – | –
